Experimental data taken from patent US20120214847A1, “2-[1-PHENYL-5-HYDROXY-4a-SUBSTITUTED-HEXAHYDROCYCLOPENTA[F]INDAZOL-5-YL]ETHYL PHENYL DERIVATIVES AS GLUCOCORTICOID RECEPTOR LIGANDS” (Merck Sharp & Dohme Corp., priority 2009, published 2012).

Biological target: T1, human GR (Homo sapiens, UniProt P04150)
T1 construct: naturally expresses the human GR; endogenous in cells
T1 sequence (P04150 1-777): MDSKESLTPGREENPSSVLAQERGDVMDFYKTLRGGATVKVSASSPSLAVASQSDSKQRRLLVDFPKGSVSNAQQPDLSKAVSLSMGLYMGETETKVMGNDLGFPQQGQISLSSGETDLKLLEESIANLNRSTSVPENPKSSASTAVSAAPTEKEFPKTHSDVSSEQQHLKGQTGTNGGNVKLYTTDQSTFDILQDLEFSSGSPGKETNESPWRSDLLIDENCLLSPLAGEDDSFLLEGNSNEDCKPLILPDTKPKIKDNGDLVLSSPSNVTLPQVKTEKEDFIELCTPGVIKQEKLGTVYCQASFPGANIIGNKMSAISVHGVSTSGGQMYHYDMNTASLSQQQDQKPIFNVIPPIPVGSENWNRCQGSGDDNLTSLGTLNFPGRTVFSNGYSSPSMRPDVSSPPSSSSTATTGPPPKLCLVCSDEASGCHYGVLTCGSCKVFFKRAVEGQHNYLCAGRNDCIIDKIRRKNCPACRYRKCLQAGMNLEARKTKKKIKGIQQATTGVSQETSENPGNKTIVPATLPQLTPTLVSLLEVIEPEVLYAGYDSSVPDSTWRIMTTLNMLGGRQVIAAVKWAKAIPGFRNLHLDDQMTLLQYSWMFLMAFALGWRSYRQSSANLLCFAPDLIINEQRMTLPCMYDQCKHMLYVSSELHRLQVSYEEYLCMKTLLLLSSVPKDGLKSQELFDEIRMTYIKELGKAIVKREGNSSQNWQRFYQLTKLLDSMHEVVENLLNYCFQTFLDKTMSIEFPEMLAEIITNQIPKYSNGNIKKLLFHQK
Experiment: Trans-activation modulation of glucocorticoid receptor (GRAMMER), MMTV-LUC reporter in A549 cells
Type: cell-based
Details: for Emax: A549, A549 cells, read-out: Transactivation A549 Cells Grammer Emax (%); for Emax / Transactivation A549 Cells Grammer Emax (%): Emax relative to the activity obtained with 300 nM dexamethasone; for EC50 / Transactivation A549 Cells Grammer Emax (%): A549 cells; for EC50: IP = inflection point, read-out: Transactivation A549 Cells Grammer IP

Emax | EC50 | Transactivation A549 Cells Grammer Emax (%) | SMILES
36% | 96 nM |  | CC[C@]12Cc3cnn(-c4ccccc4)c3C=C1CC[C@@]2(O)CCc1ncccc1S(=O)(=O)C(C)C [Example 81, (4aS,5R)-4a-Ethyl-5-{2-[3-(iso-propylsulfonyl)pyridin-2-yl]ethyl}-1-phenyl-1,4,4a,5,6,7-hexahydrocyclopenta[f]indazol-5-ol]
 | 174 nM | 10% | CC[C@]12Cc3cnn(-c4ccccc4)c3C=C1CC[C@@]2(O)CC(O)c1ccccn1 (single isomer, unassigned) [Example 82b]
 | 285 nM | 20% | CC[C@]12Cc3cnn(-c4ccccc4)c3C=C1CC[C@@]2(O)CC(O)c1ccccn1 (single isomer, unassigned) [Example 82a]

Second part, the compound before the results:

SMILES | Emax | EC50 | Transactivation A549 Cells Grammer Emax (%)
OCc1ccccc1CC[C@]1(O)CCC2=Cc3c(cnn3-c3ccc(F)cc3)C[C@@]21C1CC1 [Example 2, (4aR,5R)-4a-Cyclopropyl-1-(4-fluorophenyl)-5-{2-[2-(hydroxymethyl)phenyl]ethyl}-1,4,4a,5,6,7-hexahydrocyclopenta[f]indazol-5-ol] | 24% | 22 nM | 
NC(=O)C(O)c1ccccc1CC[C@]1(O)CCC2=Cc3c(cnn3-c3ccc(F)cc3)C[C@@]21C1CC1 (single isomer, unassigned) [Example 3a] |  | 125 nM | 7%
CC[C@]12Cc3cnn(-c4ccc(F)cc4)c3C=C1CC[C@@]2(O)CCc1ncccc1S(C)(=O)=O [Example 80, (4aS,5R)-4a-Ethyl-1-(4-fluorophenyl)-5-{2-[3-(methylsulfonyl)pyridin-2-yl]ethyl}-1,4,4a,5,6,7-hexahydrocyclopenta[f]indazol-5-ol] | 38% | 56 nM | 
OC(C[C@]1(O)CCC2=Cc3c(cnn3-c3ccc(F)cc3)C[C@@]21C1CC1)c1ccc(F)cn1 (single isomer, unassigned) [Example 79b] |  | 46 nM | 8%
